Measurements taken from US12065466B2, “Methods and compositions for protein sequencing” (Quantum-Si Incorporated, priority 2020, dated 2024).
Entries after “also recorded” stand apart in the source; their conditions may differ. Square brackets hold non-standard residues; d marks the D form. Ends that are not written are not given here. Lys(N3) = [N-]=[N+]=NCCCC[C@H](N)C(=O)O

System: amino acid at a terminal position of a polypeptide
Assay: not given
Conditions: Table 2; amino acid identity at a terminal position (phosphotyrosine also internal); inferred from literature and/or demonstrated by the inventors; cited from earlier work

Substance	Binding Pref.
H. sapiens Src tyrosine kinase SH2 domain: SEQ ID NO: 118	phospho-Y
H. sapiens p62 fragment 1-180: SEQ ID NO: 121	K, R, H,; also recorded: W, F, Y
H. sapiens p62 fragment 1-310: SEQ ID NO: 120	K, R, H,; also recorded: W, F, Y
H. sapiens p62 fragment 126-180: SEQ ID NO: 122	K, R, H,; also recorded: W, F, Y
Rattus norvegicus p62 protein: SEQ ID NO: 124	K, R, H,; also recorded: W, F, Y

Target: T1, rat aminopeptidase N (Rat APN) (Rattus norvegicus, UniProt P15684)
T1 sequence (P15684 1-965): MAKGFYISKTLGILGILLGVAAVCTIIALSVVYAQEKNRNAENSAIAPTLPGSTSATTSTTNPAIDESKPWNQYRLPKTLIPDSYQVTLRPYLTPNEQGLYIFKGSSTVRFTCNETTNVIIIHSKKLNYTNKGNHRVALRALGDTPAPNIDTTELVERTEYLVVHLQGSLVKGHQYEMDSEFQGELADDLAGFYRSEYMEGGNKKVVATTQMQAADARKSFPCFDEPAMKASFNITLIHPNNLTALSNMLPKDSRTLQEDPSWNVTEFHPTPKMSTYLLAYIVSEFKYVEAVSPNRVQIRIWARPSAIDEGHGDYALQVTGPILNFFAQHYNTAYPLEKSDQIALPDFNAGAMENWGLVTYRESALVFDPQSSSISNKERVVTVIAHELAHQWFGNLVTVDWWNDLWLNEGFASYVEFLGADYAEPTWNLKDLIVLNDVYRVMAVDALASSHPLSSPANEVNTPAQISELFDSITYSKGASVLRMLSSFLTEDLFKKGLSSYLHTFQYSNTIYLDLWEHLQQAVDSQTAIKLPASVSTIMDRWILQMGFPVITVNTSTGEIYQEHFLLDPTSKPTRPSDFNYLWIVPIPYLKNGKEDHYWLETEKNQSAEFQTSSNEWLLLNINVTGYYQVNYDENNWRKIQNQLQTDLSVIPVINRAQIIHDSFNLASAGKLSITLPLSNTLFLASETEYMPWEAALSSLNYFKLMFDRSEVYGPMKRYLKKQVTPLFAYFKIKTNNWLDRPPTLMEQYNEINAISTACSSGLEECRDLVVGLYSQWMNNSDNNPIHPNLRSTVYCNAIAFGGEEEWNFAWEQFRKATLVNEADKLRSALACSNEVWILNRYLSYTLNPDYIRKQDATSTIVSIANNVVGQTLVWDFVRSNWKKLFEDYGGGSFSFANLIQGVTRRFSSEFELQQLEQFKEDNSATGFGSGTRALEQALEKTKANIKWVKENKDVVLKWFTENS
Assay: Terminal amino acid cleavage of peptide-linker conjugates by Rat APN (LCMS)
Assay type: biochemical
Conditions: monitored by LCMS
Description: (§1) The peptide-linker conjugates were evaluated for amino acid cleavage at peptide N-termini by N-terminal aminopeptidases (Table 6, below).
(§2) The peptide-linker conjugates shown in Table 6 were incubated with either proline iminopeptidase (“PIP”) or rat aminopeptidase N (“Rat APN”), and peptide cleavage was monitored by LCMS. All other cleavage reactions were measured in a similar manner.

Substance	Cleaved by Rat APN
2: peptide-linker conjugate: KKMKKM{LYS(N3)} (SEQ ID NO. 224), oligo linker (KKMKKM[Lys(N3)]; also: oligo linker, attachment not given here) [Entry 2]	No
4: peptide-linker conjugate: KKMKKM{LYS(N3)} (SEQ ID NO. 226), PEG4 linker (KKMKKM[Lys(N3)]; also: PEG4 linker, attachment not given here) [Entry 4]	Yes
Entry 5: peptide-linker conjugate: DDMDDM{LYS(N3)} (SEQ ID NO. 227), oligo linker (DDMDDM[Lys(N3)]; also: oligo linker, attachment not given here)	Yes

Now from value to substance:

Cleaved by Rat APN	Substance
No	3: peptide-linker conjugate: KKMKKM{LYS(N3)} (SEQ ID NO. 225), oligo-PEG linker (KKMKKM[Lys(N3)]; also: oligo-PEG linker, attachment not given here) [Entry 3]
Yes	6: peptide-linker conjugate: FFMFFM{LYS(N3)} (SEQ ID NO. 228), oligo linker (FFMFFM[Lys(N3)]; also: oligo linker, attachment not given here) [Entry 6]
Yes	7: peptide-linker conjugate: AAMAAM{LYS(N3)} (SEQ ID NO. 229), oligo linker (AAMAAM[Lys(N3)]; also: oligo linker, attachment not given here) [Entry 7]

System: proline iminopeptidase (PIP)
Assay: Terminal amino acid cleavage of peptide-linker conjugates by PIP (LCMS)
Assay type: biochemical
Conditions: monitored by LCMS
Description: as §1, §2

Cleaved by PIP	Substance
Yes	8: peptide-linker conjugate: FPFPFP{LYS(N3)} (SEQ ID NO. 230), oligo linker (FPFPFP[Lys(N3)]; also: oligo linker, attachment not given here) [Entry 8]
Yes	9: peptide-linker conjugate: DPDPDP{LYS(N3)} (SEQ ID NO. 231), oligo linker (DPDPDP[Lys(N3)]; also: oligo linker, attachment not given here) [Entry 9]
No	10: peptide-linker conjugate: KPKPKP{LYS(N3)} (SEQ ID NO. 232), oligo linker (KPKPKP[Lys(N3)]; also: oligo linker, attachment not given here) [Entry 10]
Yes	11: peptide-linker conjugate: KPKPKP{LYS(N3)} (SEQ ID NO. 233), PEG4 linker (KPKPKP[Lys(N3)]; also: PEG4 linker, attachment not given here) [Entry 11]
